Assay results taken from article PMC12185845, “How allosteric mutations control ligand binding in Lipocalin protein: odorant binding protein as a test case” (Cellular and Molecular Life Sciences: CMLS, 2025).
Numbering of substitutions follows the chain as printed.

Tests used:
Assay in all cases: isothermal titration calorimetry, single-site fit
Format in all cases: binding
rOBP1 (rOBP1-wt) [1] = target: T1, rOBP1 (rOBP1-wt) (Rattus norvegicus, UniProt P08937); conditions: 50 mM sodium phosphate, pH 7.5, 25 °C; ligand up to the millimolar range; distal allosteric position
T1 construct: gene Obp1f; S7
T1 sequence (P08937 16-172): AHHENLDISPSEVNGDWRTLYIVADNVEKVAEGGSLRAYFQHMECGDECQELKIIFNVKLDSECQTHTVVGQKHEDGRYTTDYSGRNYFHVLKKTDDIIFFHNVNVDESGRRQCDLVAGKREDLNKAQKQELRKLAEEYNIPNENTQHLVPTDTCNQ

rOBP1 (rOBP1-wt) [2] = target: T2, rOBP1 (rOBP1-wt) (Rattus norvegicus, UniProt P08937, S50C/Y98C, form not given); conditions: 50 mM sodium phosphate, pH 7.5, 25 °C
T2 construct: gene Obp1f; S7
T2 sequence (P08937 16-172 S50C/Y98C): T1 sequence (P08937 16-172) with S35C, Y83C

rOBP1 (rOBP1-wt) [3] = target: T1, rOBP1 (rOBP1-wt); conditions: 50 mM sodium phosphate, pH 7.5, 25 °C

SMILES	binding (ITC) (rOBP1 (rOBP1-wt) [1])	binding (ITC) (rOBP1 (rOBP1-wt) [2])	Kd (rOBP1 (rOBP1-wt) [3])
C=CCc1ccc(O)c(OC)c1 [eugenol]	indicating a complete loss of affinity for all ligands	total loss of binding for the three odorants as no heat change was observed	60 nM
Cc1ccc(C(C)C)c(O)c1 [thymol]	indicating a complete loss of affinity for all ligands	total loss of binding for the three odorants as no heat change was observed	441 nM
